Measurements taken from patent US20040024293A1, “Methods and systems for analyzing complex biological systems” (priority 2001, published 2004).
“Also recorded” adds a separate entry of the source.

Key:
Arabidopsis thaliana [1] = experiment: Gene expression profiling (22,000 gene array) of sprayed Arabidopsis (MOA1); type: in vivo; settings: for No. of Lethal Genes Altered / gene expression perturbations compared to the other treatments: 1 hr
[2] = tested on: Arabidopsis thaliana plants; experiment: Phenotypic analysis of herbicide-treated Arabidopsis plants (SOA1); type: in vivo; settings: for leafCurling (Dev.) / leafTwisting (Dev.) / leafWidth (Dev.) / matureLeafAnthocyanins (Dev.) / matureLeafChlorosis (Dev.) / matureLeafNecrosis (Dev.) / newLeafAnthocyanins (Dev.) / newLeafChlorosis (Dev.) / newLeafNecrosis (Dev.) / pointedLeaves (Dev.) / tMic (Dev.): SOA1, numeric value standardized to mock treated; for Symptom Class: three-week-old Arabidopsis plants treated with herbicide, phenotypes of FIG. 12
Arabidopsis thaliana [3] = experiment: Biochemical (metabolite) profiling by LC-MS and GC-MS of sprayed Arabidopsis (MOA1); type: in vivo
Magnaporthe grisea = type: cell-based
[4] = tested on: Saccharomyces cerevisiae wild type strain BY4743; experiment: Combined gene expression and metabolite data mapped to KEGG reactions and pathways (AF1); type: cell-based; settings: yeast
Description: In AF1, two different technologies were utilized: gene expression analysis (for examination of mRNA expression) and metabolite analysis. […] As noted previously, existing metabolic databases may be helpful in practicing the methods and systems of the present invention, but many databases include limitations that make their use in data analysis and pathway mapping less than straightforward. […] This caveat to KEGG makes it difficult to pinpoint the correct pathway when attempting to link a gene to a specific pathway. […] The pathway score indicates how meaningful the mapping is, or how likely it is to be correctly indicative of the pathway involved in the perturbation under examination. The method provides a pathway score based on perturbation levels of genes. and/or compounds and the information content of each gene and/or compound in the pathway, i.e., a pathway score indicates the extent to which other pathways are mapped to a gene/compound. For example, imagine that two genes are perturbed in a particular experiment. One gene maps to only one pathway, giving a high degree of probability that the perturbed pathway is the one identified in the mapping. The second gene maps to three pathways. In the later example, there is only one-third the probability that the pathway identified in the mapping is the one perturbed. The present invention provides a method for calculating the pathway scores, so that more weight is given to a score of a gene or compound that maps to only one pathway than to a score of a gene or compound that maps to multiple pathways. […] Where n=the total number of genes in the pathway; ipath—count=the number of pathways containing a gene; and j=the number of genes in the pathway that are perturbed. Another factor to be considered when weighting a pathway score is the degree of perturbation. Degree of perturbation can be calculated, for example, based on a number of standard deviations from a norm, and included in an equation such as the one shown above, so that not only the number of pathways is taken into account, but also accounts for the amount of gene transcript or compound present as compared to a control. Compounds were also linked to pathways using the KEGG database. KEGG links 676 compounds measured in AF1 to a total of 92 pathways. Of the 676 compounds under consideration, 77 were detected in the AF1 samples. […] The multiple mapping feature of KEGG makes it difficult to pinpoint the correct pathway when trying to link a compound to a specific pathway. […] A pathway score calculation is applied to the compounds to account for both information content (number of pathways a compound maps to) and perturbation level. […]

Arabidopsis plants = settings: nitrate addition to N-starved Arabidopsis plants; cited from earlier work
[5] = concentrations insufficient to inhibit growth

SMILES | No. of Lethal Genes Altered (Arabidopsis thaliana [1]) | leafCurling (Dev.) [2] | leafTwisting (Dev.) [2] | leafWidth (Dev.) [2] | matureLeafAnthocyanins (Dev.) [2] | matureLeafChlorosis (Dev.) [2] | matureLeafNecrosis (Dev.) [2] | newLeafAnthocyanins (Dev.) [2] | newLeafChlorosis (Dev.) [2] | newLeafNecrosis (Dev.) [2] | pointedLeaves (Dev.) [2] | tMic (Dev.) [2] | Symptom Class [2] | further results
COC(=O)NS(=O)(=O)c1ccc(N)cc1 [Asulam] | 5 | – | – | – | – | – | – | – | – | – | – | – | – | gene expression perturbations compared to the other treatments (Arabidopsis thaliana [1]): fewest gene expression perturbations
CP(=O)(O)CCC(N)C(=O)O (stereo not shown) [Glufosinate] | 10 | 2 | 1 | −2 | 0 | 3 | 0 | 0 | 3 | 0 | 1 | 1 | 3 | Regulated Genes Following Herbicide Treatment: Down (Arabidopsis thaliana [1]; in vivo): 54; stress-related metabolites observed (Arabidopsis thaliana [3]; in vivo): Only a few, if any; nitrogen sources M. grisea is able to utilize in the presence of the compound (Magnaporthe grisea): only able to utilize glutamine and glutamate
O=C(O)c1ccccc1C(=O)Nc1cccc2ccccc12 [Naptalam] | 3 | – | – | – | – | – | – | – | – | – | – | – | – | gene expression perturbations compared to the other treatments (Arabidopsis thaliana [1]): fewest gene expression perturbations; Regulated Genes Following Herbicide Treatment: Down (Arabidopsis thaliana [1]; in vivo): 47; Regulated Genes Following Herbicide Treatment: Up (Arabidopsis thaliana [1]; in vivo): 50
COc1nc(C)nc(NC(=O)NS(=O)(=O)c2ccccc2Cl)n1 [Chlorsulfuron] | 8 | – | – | – | – | – | – | – | – | – | – | – | – | –
c1cc[n+]2c(c1)-c1cccc[n+]1CC2 [Diquat] | – | 2 | 0 | −2 | 0 | 1 | 4 | 0 | 1 | 4 | 1 | 2 | 7 | –
CN(C)C(=O)Nc1ccc(Cl)c(Cl)c1 [Diuron] | – | 1 | 0 | −2 | 0 | 2 | 4 | 0 | 2 | 4 | 1 | 1 | 7 | –
CC(C)C1(C)N=C(c2ncccc2C(=O)O)NC1=O (stereo not shown) [Imazapyr] | – | – | – | – | – | – | – | – | – | – | – | – | – | stress-related metabolites observed (Arabidopsis thaliana [3]; MOA1, 20 min and 1 hr): Only a few, if any
CC(=O)N1CCN(c2ccc(OCC3COC(Cn4ccnc4)(c4ccc(Cl)cc4Cl)O3)cc2)CC1 (stereo not shown) [Ketoconazole] | – | – | – | – | – | – | – | – | – | – | – | – | – | # Reactions (Number Of Pathways Having at Least One Enzyme and One Compound Perturbed) [4]: 24
CNc1cnn(-c2cccc(C(F)(F)F)c2)c(=O)c1Cl [Norfluazon, Norflurazon] | – | – | – | – | – | – | – | – | – | – | – | – | – | stress-related metabolites observed (Arabidopsis thaliana [3]; MOA1, 20 min and 1 hr): Only a few, if any
OC(Cn1cncn1)(Cn1cncn1)c1ccc(F)cc1F [Fluconazole] | – | – | – | – | – | – | – | – | – | – | – | – | – | # Reactions (Number Of Pathways Having at Least One Enzyme and One Compound Perturbed) [4]: 15
CS(=O)(=O)c1cc(C(F)(F)F)ccc1C(=O)c1cnoc1C1CC1 [Isoxaflutole] | 15 | – | – | – | – | – | – | – | – | – | – | – | – | tyrosine and phenylalanine relative to the control (Arabidopsis thaliana [3]; Arabidopsis, after one hour): up-regulated; also recorded: began to accumulate; Alpha-tocopherol levels relative to the control (Arabidopsis thaliana [3]; Arabidopsis, early time points): not significantly changed; M. grisea growth in minimal media (Magnaporthe grisea; [5]): unaffected; M. grisea growth in minimal plus tyrosine media (Magnaporthe grisea; [5]): inhibited
O=[N+]([O-])O [Nitrate] | – | – | – | – | – | – | – | – | – | – | – | – | – | Nitrate Regulation of Glutamate synthetase gene (Arabidopsis plants): ↑; Nitrate Regulation of Glutamine synthetase (2) genes (Arabidopsis plants): ↑; Nitrate Regulation of MADs Box (2) genes (Arabidopsis plants): ↓; Nitrate Regulation of MYB transcription factor gene (Arabidopsis plants): ↑; Nitrate Regulation of Malate Dehydrogenase gene (Arabidopsis plants): ↑; Nitrate Regulation of Nitrate transporter gene (Arabidopsis plants): ↑; Nitrate Regulation of Phosphate transporter gene (Arabidopsis plants): ↑; Nitrate Regulation of Transaldolase gene (Arabidopsis plants): ↑; Nitrate Regulation of Transketolase gene (Arabidopsis plants): ↑
O=C(O)COc1ccc(Cl)cc1Cl [2,4-D] | – | 1 | 2 | −1 | 1 | 2 | 0 | 0 | 1 | 0 | 0 | 2 | 5 | –
C[n+]1ccc(-c2cc[n+](C)cc2)cc1 [Paraquat] | – | – | – | – | – | – | – | – | – | – | – | – | 7 | –
O=C(O)CNCP(=O)(O)O [Glyphosate] | – | 0 | 0 | 0 | 3 | 1 | 3 | 1 | 2 | 0 | 1 | 2 | 4 | tyrosine (metabolite downstream from the SOA) relative to the control (Arabidopsis thaliana [3]; in vivo): decreased; growth results of Unknown 4 and glyphosate compared (Magnaporthe grisea): nearly identical; Growth inhibition of M. grisea on inclusion of aromatic amino acids to the media (Magnaporthe grisea; 1.0 mg/ml): remediated; Growth of M. grisea with ammonium or glutamine as nitrogen source (Magnaporthe grisea; Tier 4): Little growth defect
